PubChem BioAssay (NCI)
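Five concentrations, 48 hours, 96-well plates. At the GI50, growth is halved. TGI denotes the concentration required for complete inhibition of growth.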

Legend:
Assay in all cases: DTP human tumour cell line panel, 48 h
786-0 renal = test system: 786-0 renal
A498 renal = test system: A498 renal
A549 NSCLC = test system: A549 NSCLC
ACHN renal = test system: ACHN renal
BT-549 breast = test system: BT-549 breast
CAKI-1 renal = test system: CAKI-1 renal
CCRF-CEM leukemia = test system: CCRF-CEM leukemia
COLO 205 colon = test system: COLO 205 colon
DU-145 prostate = test system: DU-145 prostate
EKVX NSCLC = test system: EKVX NSCLC
HCC-2998 colon = test system: HCC-2998 colon
HCT-116 colon = test system: HCT-116 colon
HCT-15 colon = test system: HCT-15 colon
HL-60(TB) leukemia = test system: HL-60(TB) leukemia
HOP-62 NSCLC = test system: HOP-62 NSCLC
HOP-92 NSCLC = test system: HOP-92 NSCLC
HS 578T breast = test system: HS 578T breast
IGROV1 ovarian = test system: IGROV1 ovarian
K-562 leukemia = test system: K-562 leukemia
KM12 colon = test system: KM12 colon
LOX IMVI melanoma = test system: LOX IMVI melanoma
M14 melanoma = test system: M14 melanoma
MALME-3M melanoma = test system: MALME-3M melanoma
MCF7 breast = test system: MCF7 breast
MDA-MB-231 breast = test system: MDA-MB-231 breast
MDA-MB-435 = test system: MDA-MB-435
MDA-MB-468 breast = test system: MDA-MB-468 breast
MOLT-4 leukemia = test system: MOLT-4 leukemia
NCI-H226 lung = test system: NCI-H226 lung

O=C(N/N=C/c1ccc(Cl)o1)c1[nH]c2ccc(Br)cc2c1-c1ccccc1
GI50 (786-0 renal): 443 nM | TGI (786-0 renal): 8540 nM | GI50 (A498 renal): 20100 nM | TGI (A498 renal): 48900 nM | GI50 (A549 NSCLC): 383 nM | TGI (A549 NSCLC): 32400 nM | GI50 (ACHN renal): 523 nM | TGI (ACHN renal): 21000 nM | GI50 (BT-549 breast): 295 nM | TGI (BT-549 breast): 1750 nM | GI50 (CAKI-1 renal): 389 nM | TGI (CAKI-1 renal): 17900 nM | GI50 (CCRF-CEM leukemia): 351 nM | TGI (CCRF-CEM leukemia): 20200 nM | GI50 (COLO 205 colon): 245 nM | TGI (COLO 205 colon): 549 nM | GI50 (DU-145 prostate): 382 nM | TGI (DU-145 prostate): 13300 nM | GI50 (EKVX NSCLC): 585 nM | TGI (EKVX NSCLC): > 100000 nM | GI50 (HCC-2998 colon): 380 nM | TGI (HCC-2998 colon): 35100 nM | GI50 (HCT-116 colon): 128 nM | TGI (HCT-116 colon): 3520 nM | GI50 (HCT-15 colon): 343 nM | TGI (HCT-15 colon): 33600 nM | GI50 (HL-60(TB) leukemia): 235 nM | TGI (HL-60(TB) leukemia): 713 nM | GI50 (HOP-62 NSCLC): 472 nM | TGI (HOP-62 NSCLC): 27400 nM | GI50 (HOP-92 NSCLC): 4200 nM | TGI (HOP-92 NSCLC): 43200 nM | GI50 (HS 578T breast): 264 nM | TGI (HS 578T breast): 16600 nM | GI50 (IGROV1 ovarian): 401 nM | TGI (IGROV1 ovarian): > 94900 nM | GI50 (K-562 leukemia): 251 nM | TGI (K-562 leukemia): > 100000 nM | GI50 (KM12 colon): 393 nM | TGI (KM12 colon): > 100000 nM | GI50 (LOX IMVI melanoma): 276 nM | TGI (LOX IMVI melanoma): 14900 nM | GI50 (M14 melanoma): 278 nM | TGI (M14 melanoma): 23100 nM | GI50 (MALME-3M melanoma): 462 nM | TGI (MALME-3M melanoma): 49900 nM | GI50 (MCF7 breast): 292 nM | TGI (MCF7 breast): > 100000 nM | GI50 (MDA-MB-231 breast): 316 nM | TGI (MDA-MB-231 breast): 12100 nM | GI50 (MDA-MB-435): 170 nM | TGI (MDA-MB-435): 542 nM | GI50 (MDA-MB-468 breast): 276 nM | TGI (MDA-MB-468 breast): 6370 nM | GI50 (MOLT-4 leukemia): 405 nM | TGI (MOLT-4 leukemia): > 51600 nM | GI50 (NCI-H226 lung): 619 nM | TGI (NCI-H226 lung): 29600 nM
